Measurements: the supplement of paper PMC10790783
Structures can show the parent of a compound that is named as a salt.

Test system: MRC5-hT fibroblasts expressing HCMV UL38 (glucose-free medium)
Assay: rescue of cell number (AUC of dose-response) relative to untreated glucose-free control; higher = stronger protection from glucose-starvation-induced cell death
Conditions: glucose: 0 (glucose-free DMEM); 96 h; dose range 0.001-20, 10-point curve µM
Procedure: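 MRC5-hT fibroblasts stably expressing HCMV UL38 were seeded in 384-well plates, serum-starved for 24 h, switched to glucose-free DMEM, and pin-transferred with a metabolism-focused compound library as 10-point dose curves (1 nM to 20 µM; n=2). Nuclei were counted by Hoechst imaging 96 h after glucose withdrawal.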

SMILES | rescue of cell number [%]
O=C(O)CCCCC(CCSCc1ccccc1)SCc1ccccc1 (stereo not given) [CPI-613] | 28.9
C[C@@H]1CC[C@H]2[C@@H](C)C(=O)O[C@@H]3O[C@@]4(C)CC[C@@H]1[C@]32OO4 [Artemisinin] | 15.9
Cc1c2oc3c(C)ccc(C(=O)N[C@@H]4C(=O)N[C@H](C(C)C)C(=O)N5CCC[C@H]5C(=O)N(C)CC(=O)N(C)[C@@H](C(C)C)C(=O)O[C@@H]4C)c3nc-2c(C(=O)N[C@@H]2C(=O)N[C@H](C(C)C)C(=O)N3CCC[C@H]3C(=O)N(C)CC(=O)N(C)[C@@H](C(C)C)C(=O)O[C@@H]2C)c(N)c1=O [Actinomycin_D] | 27.1
CCc1ccc(Cc2ccc3c(c2)[C@]2(OC3)O[C@H](CO)[C@@H](O)[C@H](O)[C@H]2O)cc1 [Tofogliflozin hydrate] | -27.9
CC(=O)NC(CSC(=S)Nc1ccc(NC(=S)SCC(NC(C)=O)C(=O)O)cc1)C(=O)O (stereo not given) [2-AAPA hydrate] | -9.91
Nc1ccn([C@@H]2O[C@H](CO)[C@@H](O)C2(F)F)c(=O)n1 [Gemcitabine] | -5.76
O=C(Cc1cccc(OC(F)(F)F)c1)Nc1ccc(CCCCc2nnc(NC(=O)Cc3ccccn3)s2)nn1 [CB-839] | 38.5
O=C(NNc1ccccc1)c1ccncc1 [PluriSln_1] | 41.4
CC(=O)N1CCN(c2ccc(OCC3COC(Cn4ccnc4)(c4ccc(Cl)cc4Cl)O3)cc2)CC1 (stereo not given) [Ketoconazole] | -8.71
Nc1nc2c(c(=O)[nH]1)C[C@@H](CCc1ccc(C(=O)N[C@@H](CCC(=O)O)C(=O)O)cc1)CN2 [Lometrexol] | -30.2
S=c1[nH]cnc2nc[nH]c12 [Mercaptopurine] | -32.1
CC[C@@H]1/C=C/C=C/C[C@H](C)[C@H](O)[C@](C)(O)C(=O)[C@H](C)[C@@H](O)[C@H](C)C(=O)[C@H](C)[C@@H](O)[C@H](C)/C=C/C(=O)O[C@H]2[C@@H](C)[C@@H](CC1)O[C@@]1(CC[C@@H](C)[C@@H](C[C@H](C)O)O1)[C@@H]2C [Oligomycin_A] | 40.6
CC1=CC(=O)c2c(O)cccc2C1=O [Plumbagin] | 34.3
COc1cc(/C=C/C(=O)CC(=O)/C=C/c2ccc(O)c(OC)c2)ccc1O [Curcumin] | 32
CCCCN1C[C@H](O)[C@@H](O)[C@H](O)[C@H]1CO [Miglustat] | 5.72
Oc1ccc(Nc2nc(-c3ccc(Cl)cc3)cs2)cc1 [SKI_II] | 0.0721
CNc1ccc(C(=O)Oc2cc(O/N=[N+](\[O-])N(C)C)c([N+](=O)[O-])cc2[N+](=O)[O-])cc1 [PABA_NO] | -16.1
CC(=O)c1c(O)c(C)c(O)c(Cc2c(O)c3c(c(C(=O)/C=C/c4ccccc4)c2O)OC(C)(C)C=C3)c1O [Rottlerin] | 24.6
Oc1ncnc2[nH]ncc12 [Allopurinol] | -22.3
CC1=CC(=O)c2ccccc2C1=O [Menadione] | 23.5

SMILES | rescue of cell number [%]
COC(=O)/C=C/C(=O)OC [Dimethyl fumarate] | 67.2
Nc1nc(=S)c2[nH]cnc2[nH]1 [6_Thioguanine] | 42.9
NC(=O)c1ncn([C@@H]2O[C@H](CO)[C@@H](O)[C@H]2O)c1N [AICAR] | -30.3
NCCCNCCSP(=O)(O)O [Amifostine] | 110
O=C(Oc1ccc([N+](=O)[O-])cc1)N1CCC(C(O)(c2ccc3c(c2)OCO3)c2ccc3c(c2)OCO3)CC1 [JZL184] | 136
O=C(c1cc(Cc2n[nH]c(=O)c3ccccc23)ccc1F)N1CCN(C(=O)C2CC2)CC1 [Olaparib] | -15.1
CCCCNc1cc(C(=O)O)cc(S(N)(=O)=O)c1Oc1ccccc1 [Bumetanide] | -20.9
O=C1N[C@@H]2[C@@H](O)[C@@H](O)[C@H](O)[C@@H](CO)N2C1=O [Kifunensine] | 123
Cc1ccc(C(=O)c2cc(O)c(O)c([N+](=O)[O-])c2)cc1 [Tolcapone] | 37.3
Nc1ncnc2c1C(=O)N(c1ccc([C@H]3CC[C@H](CC(=O)O)CC3)cc1)CCO2 | -20.9
Cc1nc2ccc(C(=O)N3CCC4(CC3)CC(=O)c3c(cnn3C(C)C)C4)cc2[nH]1 | 31.8
N#CC(CCCN1CCN(/N=C/c2cccnc2)CC1)(c1ccccc1)c1ccccc1 | 99.9
CCOC(=O)N1c2ccc(C(F)(F)F)cc2[C@@H](N(Cc2cc(C(F)(F)F)cc(C(F)(F)F)c2)C(=O)OC)C[C@H]1CC [Torcetrapib] | -13.1
CN1C(=O)[C@@]23C[C@]4([C@]56C[C@@]78SS[C@@](CO)(C(=O)N7[C@H]5Nc5ccccc56)N(C)C8=O)c5ccccc5N[C@@H]4N2C(=O)[C@]1(CO)SS3 [Chaetocin] | 11.4
Cc1cc(C)nc(NC(=S)N2CCN(Cc3ccc(C(F)(F)F)cc3)CC2)c1 [NCT-503] | -9.82
CCCC(CCC)C(=O)O [Valproic_acid] | -34
O[C@H]1[C@H]2[C@H](O)CCCN2C[C@H]1O [Swainsonine] | -31.9
CCCCCCCCCCCCCCOc1ccc(C(=O)O)o1 [TOFA] | 48.9
CC(C)(C)NC(=O)[C@H]1CC[C@H]2[C@@H]3CC[C@H]4NC(=O)C=C[C@]4(C)[C@H]3CC[C@]12C [Finasteride] | -38.3
Cc1cc2c(C(C)C)c(O)c(O)c(C=O)c2c(O)c1-c1c(C)cc2c(C(C)C)c(O)c(O)c(C=O)c2c1O [Gossypol] | 43.9
